This is an account of results in patent US10604487B2, “Pyridinol derivative or pharmaceutically acceptable salt thereof, and pharmaceutical composition containing same as active ingredient” (Research Cooperation Foundation of Yeungnam University, priority 2016, dated 2020).

Where two headings read alike, the source gives them in different places. Some results are limits rather than exact numbers.

Data set [1] deals with TNF-α-induced adhesion of monocytes to intestinal epithelial cells. The experiment in a line: Inhibitory activity against TNF-α-induced adhesion of monocytes (U937) to intestinal epithelial cells (HT-29). The class given is cell-based, human. To be noted: for inhibition at 1 µM / IC50: Homo sapiens; for IC50: TNF-α-induced, read-out: IC50 (adhesion inhibition). A digest of the protocol: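 HT-29 monolayers pretreated 1 h with compound in 1% FBS medium, then exposed 3 h at 37 °C to BCECF-loaded U937 cells plus 10 ng/mL TNF-α. Non-adherent cells washed off; bound cells quantified by fluorescence after Triton X-100 lysis.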

In another data set the test system is TNBS-induced colitis. The experiment in a line: In vivo efficacy of oral administration in TNBS-induced inflammatory bowel disease model. Details: species or system Sprague Dawley rats. To be noted: rat; for Body weight recovery rate (%) / Bowel weight recovery rate (%): oral, 5 days. How it is done: 7 to 8-week-old Sprague Dawley rats were purchased from Orient Bio Korea, and after stabilization with typical solid feed for 3 days, were used as animals for the experiment. The animals were freely supplied with feed and water during the experiment, and a cage was maintained at a temperature of 25±1° C. and a relative humidity of 50±10%. Lighting was adjusted to a 12-hour light-dark cycle using an automatic lightening system. In regard to experimental groups, there were 5 groups each consisting of 6 rats having an average weight of 180±10 g (a control group, a group administered TNBS only, a group administered TNBS+300 mg/kg of sulfasalazine, a group administered TNBS+10 mg/kg of GLPG, and a group administered TNBS+1 mg/kg of test drug), which were divided according to a randomized block design.
After rats that had been fasting for 24 hours were anesthetized with diethyl ether, a 1 mL syringe connected with a polyethylene catheter was used to slowly inject 0.8 mL of 5% TNBS diluted with 50v/v % ethanol into the lumen of a colon, and then the rats turned upside down and kept upright for 60 seconds to prevent the leakage of 5% TNBS from the anus. In the control group, only a vehicle [50 v/v % ethanol] was injected in the same manner as in the other groups (Thapa et al., 2008).
To examine a drug effect, for 5 days from the day following the TNBS treatment, a drug was administered at a predetermined time every day.
A change in the body weights of the rats was observed using a digital mass meter from the fasting stage to the end of the TNBS administration and drug administration processes.
The colon of each rat was extracted and tissue 5 to 6 cm from the anus was cut into 1-cm pieces, and then the weight of the tissue was measured.

Data set [2] can be described thus: Cytotoxicity test (MTT), U937. The class given is cell-based. The following applies: human, U937, 48 h; for viability at 48 h, 0.01 µM / viability at 48 h, 0.1 µM / viability at 48 h, 1 µM / viability at 48 h, 10 µM / viability at 48 h, 100 µM: U937 cells (monocytic blood cancer-derived cell line), read-out: Cell viability (% of control); for IC50 at 48 h: U937 cells. A digest of the protocol:
(§1)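 Cells seeded at 1×10⁵ cells/cm² and exposed to graded compound concentrations for 48 h at 37 °C in RPMI 1640 with 1% FBS. MTT (5 mg/mL) added for 4 h; formazan dissolved in DMSO and absorbance read at 540 nm.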

Data set [3] in a line: Cytotoxicity test (MTT), HT-29. The class given is cell-based. The following applies: human, HT-29, 48 h; for viability at 48 h, 0.01 µM / viability at 48 h, 0.1 µM / viability at 48 h, 1 µM / viability at 48 h, 10 µM / viability at 48 h, 100 µM: HT-29 cells (colorectal cancer cell line), read-out: Cell viability (% of control); for IC50 at 48 h: HT-29 cells, read-out: IC50 (μM), cytotoxicity. The method, boiled down:
as §1

[4] abbreviates: 1 μM test drug, HT-29/U937 adhesion, 10 ng/mL TNF-α.
Setting [5] is: 1 μM, Table 8, read-out: 1 μM concentration inhibitory activity.
Setting [6] is: 1 μM test drug, HT-29/U937 adhesion, 10 ng/mL TNF-α, read-out: Inhibitory activity (%).

For `Cc1nc(NC(=S)Nc2cccc(C(F)(F)F)c2)c(C)c(C)c1O` [Compound 18-9, 1-(5-Hydroxy-3,4,6-trimethylpyridin-2-yl)-3-(3-(trifluoromethyl)phenyl)thiourea], the “Inhibitory activity (%)” value in data set [1] (setting [4]) stood at 93.0%. For the same compound, in the data set with TNBS-induced colitis (1 mg/kg), the “Body weight recovery rate (%)” value is given as 74.9% and the “Bowel weight recovery rate (%)” value came out at 87.2%.

Turning to `Cc1nc(NC(=O)Nc2ccccc2)c(C)c(C)c1O` [Compound 16-2, 1-(5-hydroxy-3,4,6-trimethylpyridin-2-yl)-3-phenylurea], the inhibition at 1 µM in data set [1] (setting [5]) is 76.3%. Also, the concentration for half-maximal inhibition (IC50) in data set [1] (HT-29/U937 adhesion) was 410 nM. In data set [2], the viability at 48 h, 0.01 µM was determined as 89.9 ± 2.6%; the viability at 48 h, 0.1 µM stood at 88.9 ± 1.9%; the viability at 48 h, 1 µM was 87.1 ± 2%; the viability at 48 h, 10 µM stood at 81.7 ± 2%. Further, in data set [2], the viability at 48 h, 100 µM was determined as 78 ± 0.6% and the IC50 at 48 h is greater than 100 µM. In data set [3], the viability at 48 h, 0.01 µM amounted to 103 ± 1.9%; the viability at 48 h, 0.1 µM turned out to be 103 ± 1.6%; the viability at 48 h, 1 µM is 103 ± 3.5%; the viability at 48 h, 10 µM amounted to 93.4 ± 7.2%. In data set [3], the viability at 48 h, 100 µM turned out to be 65.2 ± 6.6% and the IC50 at 48 h was greater than 100 µM. In the data set on TNBS-induced colitis (1 mg/kg), the “Body weight recovery rate (%)” value turned out to be 69.0% and the “Bowel weight recovery rate (%)” value was 81.6%.

For `Cc1nc(NS(=O)(=O)c2ccc(C(F)(F)F)cc2)c(C)c(C)c1O` [Compound 22-3, N-(5-hydroxy-3,4,6-trimethylpyridin-2-yl)-4-(trifluoromethyl)benzenesulfonamide], the inhibition at 1 µM in data set [1] (setting [5]) is 87.3%. In addition, the IC50 in data set [1] (HT-29/U937 adhesion) stood at 320 nM. In data set [2], the viability at 48 h, 0.01 µM was 96.9 ± 1.5%; the viability at 48 h, 0.1 µM came out at 93 ± 1.5%; the viability at 48 h, 1 µM turned out to be 87.5 ± 2.2%; the viability at 48 h, 10 µM is 75.5 ± 1.9%. In data set [2], the viability at 48 h, 100 µM was 53.3 ± 1.5% and the IC50 at 48 h was greater than 100 µM. Also, in data set [3], the viability at 48 h, 0.01 µM was found to be 92.5 ± 1.5%; the viability at 48 h, 0.1 µM is 95 ± 0.9%; the viability at 48 h, 1 µM turned out to be 89.3 ± 4.7%; the viability at 48 h, 10 µM is 91.8 ± 1.8%. For the same compound, in data set [3], the viability at 48 h, 100 µM stood at 72.6 ± 3.2% and the IC50 at 48 h was greater than 100 µM. In the data set with TNBS-induced colitis (1 mg/kg), the “Body weight recovery rate (%)” value is 25.0% and the “Bowel weight recovery rate (%)” value stood at 50.3%.

Take `Cc1nc(NC(=S)NC(=O)c2ccccc2)c(C)c(C)c1O` [Compound 18-13, N-((5-Hydroxy-3,4,6-trimethylpyridin-2-yl)carbamothioyl)benzamide]: in data set [1] (setting [6]), the inhibition at 1 µM is no less than 50%. In addition, in data set [2], the viability at 48 h, 0.01 µM amounted to 99.9 ± 1.3%; the viability at 48 h, 0.1 µM was 96.8 ± 1.8%; the viability at 48 h, 1 µM turned out to be 91.7 ± 3.6%; the viability at 48 h, 10 µM turned out to be 79 ± 0.8%. In data set [2], the viability at 48 h, 100 µM was determined as 60.6 ± 0.5% and the IC50 at 48 h is greater than 100 µM. Besides, in data set [3], the viability at 48 h, 0.01 µM turned out to be 78.8 ± 3.3%; the viability at 48 h, 0.1 µM is 75.4 ± 1.3%; the viability at 48 h, 1 µM is 75.4 ± 4.1%; the viability at 48 h, 10 µM was 57.9 ± 5.8%. Also, in data set [3], the viability at 48 h, 100 µM is 36.4 ± 6.1% and the IC50 at 48 h is 19.1 µM. In the data set with TNBS-induced colitis (1 mg/kg), the “Body weight recovery rate (%)” value amounted to 93.8% and the “Bowel weight recovery rate (%)” value came out at 94.9%.

On to `Cc1nc(NC(=S)NC(C)C)c(C)c(C)c1O` [Compound 18-2, 1-(5-hydroxy-3,4,6-trimethylpyridin-2-yl)-3-isopropylthiourea], for which, in data set [1] (setting [6]), the inhibition at 1 µM is no less than 50%. Besides, in data set [2], the viability at 48 h, 0.01 µM is 97 ± 3.5%; the viability at 48 h, 0.1 µM was determined as 99.4 ± 3.9%; the viability at 48 h, 1 µM is 99.1 ± 1.4%; the viability at 48 h, 10 µM was determined as 90.8 ± 2.2%. For the same compound, in data set [2], the viability at 48 h, 100 µM is 63.6 ± 0.8% and the IC50 at 48 h was greater than 100 µM. In addition, in data set [3], the viability at 48 h, 0.01 µM was 87.6 ± 4.8%; the viability at 48 h, 0.1 µM was determined as 87.3 ± 2.1%; the viability at 48 h, 1 µM turned out to be 88.4 ± 4.2%; the viability at 48 h, 10 µM stood at 87.6 ± 5.3%. Further, in data set [3], the viability at 48 h, 100 µM stood at 88.6 ± 1.3% and the IC50 at 48 h was greater than 100 µM. In the data set with TNBS-induced colitis (1 mg/kg), the “Body weight recovery rate (%)” value is given as 72.0% and the “Bowel weight recovery rate (%)” value amounted to 81.6%.

`Cc1nc(NC(=S)Nc2ccc(Cl)c(Cl)c2)c(C)c(C)c1O` [Compound 18-8, 1-(3,4-dichlorophenyl)-3-(5-hydroxy-3,4,6-trimethylpyridin-2-yl)thiourea]: the “Inhibitory activity (%)” value in data set [1] (setting [4]) is listed as 87.2%. In the data set on TNBS-induced colitis (1 mg/kg), the “Body weight recovery rate (%)” value stood at 72.4% and the “Bowel weight recovery rate (%)” value is 84.6%.

In the case of `O=C(O)c1cc(/N=N/c2ccc(S(=O)(=O)Nc3ccccn3)cc2)ccc1O` [Sulfasalazine, reference compound], the “Morphology observation of colon (visual symptoms, adhesion between organs, intestinal hyperemia)” value in the data set with TNBS-induced colitis (300 mg/kg, after 5-day administration) is “considerably inhibited”. Besides, in the data set with TNBS-induced colitis (300 mg/kg), the “Body weight recovery rate (%)” value came to 50.5% and the “Bowel weight recovery rate (%)” value was determined as 69.6%.
